Laboratory results published in paper PMC8269059, “Glycyrrhizin Derivatives Suppress Cancer Chemoresistance by Inhibiting Progesterone Receptor Membrane Component 1” (Cancers, 2021).

What was measured:
HMGB1 = target: T1, HMGB1 (Homo sapiens, UniProt P09429); assay: ITC binding to HMGB1; conditions: HMGB1 80 µM, compound 3 mM
T1 construct: human HMGB1 full-length cDNA was cloned from cDNA library of HCT116 cells; GST (N, cleaved yes); made in house; host or cells: E. coli BL21 (DE3)
Excerpt: (§1) Bacterial expression vectors pGEX-PGRMC1 (human PGRMC1 intracellular domain residues 43-195) and mammalian FLAG-tagged expression vector pCMV-FLAG-PGRMC1 (full-length) were constructed as described previously. Expression vectors for PGRMC1 point mutants were generated by site-directed mutagenesis with PCR. For construction of HMGB1 expression vector, human HMGB1 full-length cDNA was cloned from cDNA library of HCT116 cells using the primers (Forward: 5′-[…]-3′, Reverse: 5′-[…]-[…]-3′), digested with Bam HI and Sal I, and then ligated into pGEX6P1.
Expression vectors (pGEX-PGRMC1 (residues 43-195) or pGEX-HMGB1) were transformed into BL21 (DE3) competent E. coli cells, and the cells incubated in LB medium with ampicillin at 37 °C until the OD600 reached 0.8. Protein expression was induced by adding 1 mM isopropyl-β-thiogalactopyranoside (IPTG) and incubating at 37 °C for 4 h. […]
ITC experiments were performed at 298 K with ITC-Buffer (50 mM phosphate [pH 7.0]) using a MicroCal iTC200 (Malvern Panalytical, Malvern, UK). […] Binding isotherms were analyzed using SEDPHAT [35]. The binding of AG205 to apo- or heme-PGRMC1 (100 μM) was analyzed using a concentration of 3 mM containing 1% DMSO. […]

HuH7 cells = assay: Chemosensitivity MTT assay in HuH7 cells; format: cell-based, human
Procedure: The HCT116 cells, a human colon cancer cell line, and HuH7 cells, a human hepatoma cell line, were maintained in Dulbecco’s modified Eagle’s medium (DMEM) containing 10% fetal bovine serum (FBS) and 1% penicillin-streptomycin at 37 °C in a 5% CO2 humidified incubator. The PGRMC1 knockdown (KD) cell line was established in a previous study using lentivirus vectors.
To analyze the chemosensitivity of HCT116 or HuH7 cells, the cells were incubated with erlotinib (20 µM) or CDDP (10 µM) and either GL or GL derivatives for 24 h on a 96-well plate. Cell viability was determined using an MTT assay kit (Millipore, Burlington, MA, USA) according to the manufacturer’s instructions.

[1] = target: T2, interaction between PGRMC1 and EGFR (Homo sapiens, UniProt O00264); assay: Co-immunoprecipitation of PGRMC1 and EGFR in HuH7 cells; format: cell-based; conditions: HuH7, FLAG-PGRMC1 co-IP, 12 h treatment
T2 construct: mammalian FLAG-tagged expression vector pCMV-FLAG-PGRMC1 (full-length); expressed in transfected cells; host or cells: HCT116 or HuH7
T2 sequence (O00264 whole entry): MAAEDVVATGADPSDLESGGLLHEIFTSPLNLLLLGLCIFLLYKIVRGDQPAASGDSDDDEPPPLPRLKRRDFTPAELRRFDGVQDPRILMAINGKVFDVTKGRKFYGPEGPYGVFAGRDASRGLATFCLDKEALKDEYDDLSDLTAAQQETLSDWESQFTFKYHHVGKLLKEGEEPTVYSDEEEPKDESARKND
Procedure: (§2) An expression vector of pCMV-3xFLAG-PGRMC1 or an empty vector was transfected into HCT116 cells or HuH7 cells using the transfection reagent Lipofectamine 2000 (Invitrogen). The cells were incubated overnight with either GL or GlucoGL. Cells were then lysed with NP40 lysis buffer (20 mM Tris-HCl [pH 7.5], 150 mM NaCl, and 1% NP40). The lysates were incubated with 10 μL of equilibrated anti-FLAG (M2) agarose for 60 min at room temperature. Bound proteins were washed three times and subjected to SDS-PAGE and visualized through western blotting using antibodies against FLAG, EGFR, and LDLR. For analysis of the endogenous PGRMC1-binding with FLAG-PGRMC1, HCT116 cells (1 × 10^7 cells) were treated with vehicle or 250 μM SA and/or 10 μM hemin for 48 h, and the cell lysates were co-immunoprecipitated with anti-FLAG (M2) agarose. Bound proteins (endogenous PGRMC1 and FLAG-tagged PGRMC1) were visualized through western blotting using antibody against PGRMC1.

EGF signaling = EGF signaling (western blot) in HuH7 cells; format: cell-based, human; conditions: HuH7, EGF for 5 min
Procedure: For analysis of EGFR signaling, cells were incubated overnight with GL or GlucoGL, and then EGF (100 ng/mL) was added for 5 min. Cells were lysed with RIPA buffer, and the lysates were subjected to SDS-PAGE and visualized through western blotting using antibodies against PGRMC1, EGFR, phospho-Y1068 EGFR, AKT, phospho-S473AKT, ERK, and phospho-T185 Y187 ERK.

EGFR kinase = target: T3, EGFR kinase (Homo sapiens, UniProt P00533); assay: EGFR kinase assay in vitro; format: biochemical; conditions: Kinase-Glo, erlotinib 100nM
T3 construct: purchased BPS Bioscience
T3 sequence (P00533 25-1210): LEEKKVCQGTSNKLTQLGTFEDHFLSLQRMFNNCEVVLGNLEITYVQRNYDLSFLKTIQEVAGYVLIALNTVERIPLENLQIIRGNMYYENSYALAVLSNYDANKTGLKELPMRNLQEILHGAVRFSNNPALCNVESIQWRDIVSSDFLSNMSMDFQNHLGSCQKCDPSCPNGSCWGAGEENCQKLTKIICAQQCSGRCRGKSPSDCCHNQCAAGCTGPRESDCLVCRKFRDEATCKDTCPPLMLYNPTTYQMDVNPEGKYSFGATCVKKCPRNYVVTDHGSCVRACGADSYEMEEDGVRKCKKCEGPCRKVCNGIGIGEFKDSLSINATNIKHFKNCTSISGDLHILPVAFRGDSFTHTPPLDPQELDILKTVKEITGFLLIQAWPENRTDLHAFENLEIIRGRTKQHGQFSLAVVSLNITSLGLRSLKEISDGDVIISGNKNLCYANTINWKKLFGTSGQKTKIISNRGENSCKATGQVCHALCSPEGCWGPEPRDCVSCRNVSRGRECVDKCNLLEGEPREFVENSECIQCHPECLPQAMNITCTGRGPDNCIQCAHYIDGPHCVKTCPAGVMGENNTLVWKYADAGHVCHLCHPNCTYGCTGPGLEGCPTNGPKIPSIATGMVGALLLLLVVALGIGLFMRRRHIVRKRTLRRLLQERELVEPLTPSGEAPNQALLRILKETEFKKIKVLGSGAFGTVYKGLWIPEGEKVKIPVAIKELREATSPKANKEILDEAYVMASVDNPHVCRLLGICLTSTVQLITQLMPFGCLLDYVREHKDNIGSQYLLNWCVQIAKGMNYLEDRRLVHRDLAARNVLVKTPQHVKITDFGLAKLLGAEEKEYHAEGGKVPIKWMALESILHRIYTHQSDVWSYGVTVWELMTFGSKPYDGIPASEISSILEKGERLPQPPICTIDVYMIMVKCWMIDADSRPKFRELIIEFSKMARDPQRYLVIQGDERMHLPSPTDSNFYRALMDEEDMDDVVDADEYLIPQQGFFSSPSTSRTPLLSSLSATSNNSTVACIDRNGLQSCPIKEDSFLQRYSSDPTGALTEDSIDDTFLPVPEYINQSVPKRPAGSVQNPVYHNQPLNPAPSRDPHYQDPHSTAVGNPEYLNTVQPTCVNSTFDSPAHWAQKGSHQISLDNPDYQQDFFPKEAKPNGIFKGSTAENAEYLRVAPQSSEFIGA
Procedure: The assay was performed using an EGFR kinase assay kit (BPS Bioscience, San Diego, CA, USA). EGFR kinase activity was analyzed by measuring the amount of ATP remaining following the kinase reaction based on luminescent intensity using Kinase-Glo MAX (Promega, Madison, WI, USA). A mixture of kinase buffer, ATP, and PTK substrate was incubated with EGFR (1 ng/µL) with or without GL or GlucoGL at 30 °C for 40 min. Kinase-Glo max was added to each well and incubated at room temperature for 15 min under light protection. Luminescent intensity was measured using a microplate reader.

[2] = target: T4, interaction between PGRMC1 and LDLR (Homo sapiens, UniProt O00264); assay: Co-immunoprecipitation of PGRMC1 and LDLR in HCT116 cells; format: cell-based; conditions: HCT116, FLAG-PGRMC1 co-IP, 12 h treatment
T4 construct: mammalian FLAG-tagged expression vector pCMV-FLAG-PGRMC1 (full-length); expressed in transfected cells; host or cells: HCT116
T4 sequence (O00264 whole entry): as the sequence (O00264 whole entry) above
Procedure: as §2

PGRMC1 G108W = target: T5, PGRMC1 G108W (Homo sapiens, UniProt O00264, G108W); assay: ITC binding of GL to PGRMC1 mutant G108W
T5 construct: human PGRMC1 intracellular domain residues 43-195; GST (N, cleaved yes); made in house; host or cells: E. coli BL21 (DE3)
T5 sequence (O00264 43-195 G108W): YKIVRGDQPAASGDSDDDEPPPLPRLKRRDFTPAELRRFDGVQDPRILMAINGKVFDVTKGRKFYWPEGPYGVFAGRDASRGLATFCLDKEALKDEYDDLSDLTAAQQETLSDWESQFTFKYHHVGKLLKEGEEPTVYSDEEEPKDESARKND
Excerpt: as §1
(§3) ITC experiments were performed at 298 K with ITC-Buffer (50 mM phosphate [pH 7.0]) using a MicroCal iTC200 (Malvern Panalytical, Malvern, UK). GL derivatives were dissolved in […] and titrated into 100 μM apo-PGRMC1, heme-bound-PGRMC1, or HMGB1 protein. Titration was performed by injecting 2 µL of the syringe solution at intervals of 120 s. Binding isotherms were analyzed using SEDPHAT [35]. The binding of AG205 to apo- or heme-PGRMC1 (100 μM) was analyzed using a concentration of 3 mM containing 1% DMSO. The binding affinities of GL derivatives for HMGB1 (80 µM) were analyzed using a concentration of 3 mM.

PGRMC1 T146W = target: T6, PGRMC1 T146W (Homo sapiens, UniProt O00264, T146W); assay: ITC binding of GL to PGRMC1 mutant T146W
T6 construct: human PGRMC1 intracellular domain residues 43-195; GST (N, cleaved yes); made in house; host or cells: E. coli BL21 (DE3)
T6 sequence (O00264 43-195 T146W): as the sequence (O00264 43-195 G108W) above, with W66G, T104W counted along it
Excerpt: as §1, §3

PGRMC1 A147W = target: T7, PGRMC1 A147W (Homo sapiens, UniProt O00264, A147W); assay: ITC binding of GL to PGRMC1 mutant A147W
T7 construct: human PGRMC1 intracellular domain residues 43-195; GST (N, cleaved yes); made in house; host or cells: E. coli BL21 (DE3)
T7 sequence (O00264 43-195 A147W): as the sequence (O00264 43-195 G108W) above, with W66G, A105W counted along it
Excerpt: as §1, §3

T1 sequence (P09429 whole entry): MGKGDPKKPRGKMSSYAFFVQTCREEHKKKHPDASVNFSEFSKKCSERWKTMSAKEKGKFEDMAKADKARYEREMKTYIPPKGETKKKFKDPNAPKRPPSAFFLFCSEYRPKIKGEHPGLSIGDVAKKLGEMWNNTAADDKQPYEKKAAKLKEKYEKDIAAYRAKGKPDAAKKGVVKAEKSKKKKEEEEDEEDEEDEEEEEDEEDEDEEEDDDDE

Compound | KD for HMGB1 (HMGB1) | Cell viability with erlotinib or CDDP (HuH7 cells) | Interaction between PGRMC1 and EGFR [1] | EGF signaling (EGF signaling) | EGFR kinase activity (EGFR kinase) | Interaction between PGRMC1 and LDLR [2] | Kd (HMGB1) | Kd (PGRMC1 G108W) | TΔS (PGRMC1 G108W) | ΔG (PGRMC1 G108W) | ΔH (PGRMC1 G108W) | Kd (PGRMC1 T146W) | TΔS (PGRMC1 T146W) | ΔH (PGRMC1 T146W) | Kd (PGRMC1 A147W) | TΔS (PGRMC1 A147W) | ΔG (PGRMC1 A147W) | ΔH (PGRMC1 A147W)
CC1(C(=O)O)CCC2(C)CCC3(C)C(=CC(=O)C4C5(C)CCC(OC6OC(C(=O)O)C(O)C(O)C6OC6OC(CO)C(O)C(O)C6O)C(C)(C)C5CCC43C)C2C1 (centres unmarked) [Glucoglycyrrhizin (GlucoGL), Glucoglycyrrhizin] | weak binding | significantly suppressed cell viability | inhibited the interaction | suppressed the EGF signaling | no inhibitory effect | inhibited this interaction more potently |  |  |  |  |  |  |  |  |  |  |  | 
CC1(C)[C@@H](O[C@H]2O[C@H](C(=O)O)[C@@H](O)[C@H](O)[C@H]2O[C@@H]2O[C@H](C(=O)O)[C@@H](O)[C@H](O)[C@H]2O)CC[C@]2(C)[C@H]3C(=O)C=C4[C@@H]5C[C@@](C)(C(=O)O)CC[C@]5(C)CC[C@@]4(C)[C@]3(C)CC[C@@H]12 [Glycyrrhizin (GL), Glycyrrhizin] |  | significantly suppressed cell viability | inhibited the interaction | suppressed the EGF signaling | no inhibitory effect | inhibited | 223 µM | 185 µM | 1.58 K･kcal/mol | -5.09 kcal/mol | -3.51 kcal/mol | 97.9 µM | 2.64 K･kcal/mol | -2.17 kcal/mol | 158 µM | 2.10 K･kcal/mol | -5.19 kcal/mol | -3.09 kcal/mol
